From BindingDB's records for doi:10.1016/s0960-894x(01)00331-6 (Dupont Pharmaceuticals, 2001) come the findings set out here.

This test has as its target T1, Gag-Pol polyprotein [588-1027]/[588-1147] (Human immunodeficiency virus 1, UniProt P04585).
T1 construct: 588-1027; 588-1147
The test is described as follows: HIV-1 RT Assay. The settings on record: pH 8.2; 37 °C. The source says:
The IC50 of reverse transcriptase is the concentration that inhibits 50% of recombinant HIV-1 RT RNA-directed DNA polymerase activity in vitro.
Regarding `CC(=O)N[C@H]1C(=O)Nc2ccc(Cl)cc2[C@@]1(C#CC1CC1)C(F)(F)F` [N-[(3R,4R)-6-chloro-4-(2-cyclopropylethynyl)-2-oxo-4-(trifluoromethyl)-1,2,3,4-tetrahydroquinolin-3-yl]acetamide], the IC50 was more than 2 µM.

The compound `COC(=O)N[C@H]1C(=O)Nc2ccc(Cl)cc2[C@@]1(C#CC1CC1)C(F)(F)F` [methyl N-[(3R,4R)-6-chloro-4-(2-cyclopropylethynyl)-2-oxo-4-(trifluoromethyl)-1,2,3,4-tetrahydroquinolin-3-yl]carbamate] showed an IC50 of more than 2 µM.

For `O=C1Nc2ccc(Cl)cc2[C@@](C#CC2CC2)(C(F)(F)F)[C@H]1NCc1ccccc1` [(3R,4R)-3-(benzylamino)-6-chloro-4-(2-cyclopropylethynyl)-4-(trifluoromethyl)-1,2,3,4-tetrahydroquinolin-2-one], the IC50 is more than 2 µM.

The compound `CC(C)=CCO[C@H]1C(=O)Nc2ccc(Cl)cc2[C@@]1(C#CC1CC1)C(F)(F)F` [(3R,4R)-6-chloro-4-(2-cyclopropylethynyl)-3-[(3-methylbut-2-en-1-yl)oxy]-4-(trifluoromethyl)-1,2,3,4-tetrahydroquinolin-2-one] gave an IC50 of more than 2 µM.

`O=C1Nc2ccc(Cl)cc2[C@@](C#CC2CC2)(C(F)(F)F)[C@H]1O` [(3R,4R)-6-chloro-4-(2-cyclopropylethynyl)-3-hydroxy-4-(trifluoromethyl)-1,2,3,4-tetrahydroquinolin-2-one] came in with an IC50 of more than 2 µM.
